Measurements reported in ChEMBL document CHEMBL3120058, “Integrated strategies for identifying leads that target the NS3 helicase of the hepatitis C virus” (J Med Chem, 2014).

How the values were obtained:
[1] = Inhibition of HCV H genotype 1a N-terminal hexa-histidine-tagged NS3 helicase expressed in Escherichia coli BL21(DE3) using DNA oligonucleotide duplex as substrate after 1 hr by unwinding assay; parameters: species or system Hepatitis C virus (isolate H)
[2] = Binding affinity to HCV H genotype 1a N-terminal hexa-histidine-tagged NS3 helicase expressed in Escherichia coli BL21(DE3) assessed as resonance peak2 by STD NMR spectroscopic analysis; parameters: species or system Hepatitis C virus (isolate H)
[3] = Binding affinity to HCV H genotype 1a N-terminal hexa-histidine-tagged NS3 helicase expressed in Escherichia coli BL21(DE3) assessed as resonance peak1 by STD NMR spectroscopic analysis; parameters: species or system Hepatitis C virus (isolate H)
[4] = Binding affinity to HCV H genotype 1a N-terminal hexa-histidine-tagged NS3 helicase expressed in Escherichia coli BL21(DE3) at pH 6.5 by circular dichroism assay; parameters: species or system Hepatitis C virus (isolate H)
[5] = Binding affinity to HCV H genotype 1a N-terminal hexa-histidine-tagged NS3 helicase expressed in Escherichia coli BL21(DE3) in ITC/NMR buffer at pH 7.5 by circular dichroism assay; parameters: species or system Hepatitis C virus (isolate H)
[6] = Binding affinity to HCV H genotype 1a N-terminal hexa-histidine-tagged NS3 helicase expressed in Escherichia coli BL21(DE3) by isothermal titration calorimetry; parameters: species or system Hepatitis C virus (isolate H)
[7] = Selectivity ratio for HCV H genotype 1a N-terminal hexa-histidine-tagged NS3 helicase over human RNA helicase A

Row | SMILES | IC50 [1] | further results
1 | O=C(O)Cc1cn(Cc2ccccc2)c2ccccc12 | 240 µM | 
2 | C#Cc1cccc(Cn2cc(CC(=O)O)c3ccccc32)c1 | 31 µM | 
3 | O=C(O)Cc1cn(Cc2cccc(Cl)c2)c2ccccc12 | 71 µM | 
4 | O=C(O)Cc1cn(Cc2cccc(O)c2)c2ccccc12 | 150 µM | 
5 | COc1ccc([N+](=O)[O-])cc1Cn1cc(CC(=O)O)c2ccc(-c3cc(N)cc(N)c3)cc21 | 3 µM | Kd [2]: 28 µM; Kd [3]: 32 µM; Kd [4]: 3.5 µM; Kd [5]: 41 µM; Kd [6]: 33 µM; Selectivity ratio [7]: 36
6 | O=C(O)Cc1cn(Cc2cccc(I)c2)c2ccccc12 | 52 µM | 
7 | Cc1cccc(Cn2cc(CC(=O)O)c3ccccc32)c1 | 85 µM | 
8 | O=C(O)Cc1cn(Cc2cccc(Cl)c2)c2cc(Br)ccc12 | 94 µM | 
9 | COc1ccc([N+](=O)[O-])cc1Cn1cc(CC(=O)O)c2ccccc21 | 14 µM | 
10 | Nc1cccc(Cn2cc(CC(=O)O)c3ccccc32)c1 | > 500 µM | 
11 | O=C(O)Cc1cn(-c2ccc([N+](=O)[O-])cc2C(F)(F)F)c2ccc(Br)cc12 | 140 µM | 
12 | O=C(O)Cc1cn(Cc2cccc(Cl)c2)c2cc(-c3ccccc3)ccc12 | 140 µM | 
13 | Nc1cc(-c2ccc3c(CC(=O)O)cn(Cc4cccc(Cl)c4)c3c2)cc([N+](=O)[O-])c1 | 140 µM | 
14 | Nc1cc(N)cc(-c2ccc3c(CC(=O)O)cn(Cc4cccc(Cl)c4)c3c2)c1 | 35 µM | 
15 | O=C(O)Cc1cn(Cc2cccc([N+](=O)[O-])c2)c2ccccc12 | 46 µM | 
16 | O=C(O)Cc1c[nH]c2ccccc12 [INDOLE-3-ACETIC ACID] | 500 µM | 
17 | O=C(O)Cc1cn(Cc2cccc(Cl)c2)c2cc(Cl)ccc12 | 94 µM | 
